Data taken from the NIST ThermoML archive (doi:10.1021/je500784s).
Several values for one entry are separate records, joined by “and”; a condition that tells them apart may be missing. Identical values can stand only once.

Experiments:
[1] = for vapor or sublimation pressure: Transpiration method; for Normal melting temperature: DTA
[2] = Molar enthalpy of transition or fusion; settings: Crystal; DSC

Cc1cccc(Br)c1 [1-bromo-3-methylbenzene]
[1], Liquid
Settings | vapor or sublimation pressure
274.2 K | 0.02006 kPa
276.2 K | 0.0234 kPa
278.2 K | 0.02748 kPa
278.3 K | 0.02776 kPa
279.2 K | 0.0289 kPa
280.3 K | 0.03259 kPa
281.3 K | 0.0351 kPa
282.2 K | 0.03686 kPa
282.5 K | 0.03833 kPa
284.2 K | 0.0421 kPa and 0.04171 kPa
287.2 K | 0.05299 kPa
287.3 K | 0.0526 kPa
290.2 K | 0.06611 kPa
290.4 K | 0.06761 kPa
293.2 K | 0.08432 kPa
293.6 K | 0.08569 kPa
296.2 K | 0.09718 kPa
296.7 K | 0.1039 kPa
299.2 K | 0.1199 kPa
299.8 K | 0.1279 kPa
302.2 K | 0.1478 kPa
302.8 K | 0.1548 kPa
305.2 K | 0.18 kPa
308.2 K | 0.2084 kPa and 0.2115 kPa and 0.2068 kPa

Cc1ccc(I)c(C)c1 [1-iodo-2,4-dimethylbenzene]
[1], Liquid
Settings | vapor or sublimation pressure
293.5 K | 0.00972 kPa
298.4 K | 0.01434 kPa
301.4 K | 0.01827 kPa
303.4 K | 0.02175 kPa
306.3 K | 0.02654 kPa
308.3 K | 0.03017 kPa
311.3 K | 0.03876 kPa
313.3 K | 0.04322 kPa
316.4 K | 0.05407 kPa
318.6 K | 0.06284 kPa
321.4 K | 0.07438 kPa
323.4 K | 0.08333 kPa
326.4 K | 0.1058 kPa and 0.1032 kPa
328.5 K | 0.1158 kPa

Cc1cccc(C)c1I [1-iodo-2,6-dimethylbenzene]
[1], Liquid
Settings | vapor or sublimation pressure [kPa]
284.5 K | 0.005
288.4 K | 0.00709
291.6 K | 0.00925
296.5 K | 0.014
298.4 K | 0.01572
299.5 K | 0.01696
301.5 K | 0.01972
303.3 K | 0.02303
306.4 K | 0.02867
308.3 K | 0.03267
311.4 K | 0.04222
313.6 K | 0.04835
316.4 K | 0.05818
318.4 K | 0.06657
321.2 K | 0.08028
323.4 K | 0.09228
326.3 K | 0.1123
328.5 K | 0.1277
331.3 K | 0.1526
333.4 K | 0.1721

Cc1ccccc1I [1-iodo-2-methylbenzene]
[1], Liquid
Settings | vapor or sublimation pressure [kPa]
283.2 K | 0.01623
288.2 K | 0.02387
293.2 K | 0.0355
301.2 K | 0.06212
304.2 K | 0.07615
307.4 K | 0.0943
310.3 K | 0.1131
313.1 K | 0.1354
316.2 K | 0.1655
319.3 K | 0.1983
322.1 K | 0.2325
325.1 K | 0.2843

Cc1cccc(I)c1 [1-iodo-3-methylbenzene]
[1], Liquid
Settings | vapor or sublimation pressure
275.7 K | 0.00715 kPa
279.3 K | 0.00936 kPa
281.9 K | 0.01131 kPa
283.5 K | 0.01241 kPa
286.4 K | 0.0157 kPa
289.3 K | 0.01945 kPa and 0.01996 kPa
293.1 K | 0.02757 kPa
293.2 K | 0.02683 kPa
298.1 K | 0.0403 kPa
298.2 K | 0.03887 kPa
302.9 K | 0.05424 kPa and 0.05679 kPa
308 K | 0.07665 kPa and 0.07718 kPa
313.1 K | 0.1065 kPa

Cc1cccc(C)c1Br [2-bromo-1,3-dimethylbenzene]
[1], Liquid
Settings | vapor or sublimation pressure
274.2 K | 0.00695 kPa
276.2 K | 0.0084 kPa
278.3 K | 0.01013 kPa
281.2 K | 0.01282 kPa
284.2 K | 0.0161 kPa
287.2 K | 0.02071 kPa
290.2 K | 0.02551 kPa
293.3 K | 0.0317 kPa and 0.03214 kPa
293.4 K | 0.03244 kPa
296.3 K | 0.03998 kPa
299.3 K | 0.04922 kPa
302.2 K | 0.06313 kPa
305.3 K | 0.07815 kPa

Cc1ccccc1Br [2-bromotoluene]
[1], Liquid
Settings | vapor or sublimation pressure
281.2 K | 0.04946 kPa
284.2 K | 0.06067 kPa
285.2 K | 0.06568 kPa
287.2 K | 0.07592 kPa and 0.07526 kPa
290.2 K | 0.09238 kPa
293.2 K | 0.1131 kPa
296.2 K | 0.1381 kPa
299.2 K | 0.1684 kPa
302.2 K | 0.2053 kPa
305.2 K | 0.25 kPa
308.2 K | 0.3008 kPa [middle of 4 runs]
313.1 K | 0.3903 kPa [middle of 6 runs]

Cc1ccc(Br)cc1 [4-bromotoluene]
Settings | Molar enthalpy of transition or fusion [kcal/mol]
[2] | 3.56

[1]
Settings | vapor or sublimation pressure [kPa]
274.5 K, Crystal | 0.01409
277.2 K, Crystal | 0.01853
278.3 K, Crystal | 0.02013
280.2 K, Crystal | 0.02439
282.2 K, Crystal | 0.02935
283.2 K, Crystal | 0.0328
285.5 K, Crystal | 0.04128
286.2 K, Crystal | 0.04379
288.3 K, Crystal | 0.05178
289.6 K, Crystal | 0.05809
291.2 K, Crystal | 0.06948
294.3 K, Crystal | 0.08957
297.3 K, Crystal | 0.1161
298.2 K, Crystal | 0.1223
299.2 K, Crystal | 0.1357
300.8 K, Crystal | 0.1543
301.9 K, Liquid | 0.1746
304.2 K, Liquid | 0.1989
304.9 K, Liquid | 0.2137
307.2 K, Liquid | 0.2422
310.3 K, Liquid | 0.2964
313.2 K, Liquid | 0.3477
314.4 K, Liquid | 0.3671
316.3 K, Liquid | 0.4044
317.5 K, Liquid | 0.4335
319.3 K, Liquid | 0.4827
320.6 K, Liquid | 0.507
322.4 K, Liquid | 0.5742
325.3 K, Liquid | 0.6696
328.2 K, Liquid | 0.7835
331.3 K, Liquid | 0.8879
332.3 K, Liquid | 0.9409
335.3 K, Liquid | 1.1

Settings | Normal melting temperature [°C]
[1], Crystal | 28.2

Cc1ccc(I)cc1 [4-iodotoluene]
Settings | Molar enthalpy of transition or fusion [kcal/mol]
[2] | 3.59

[1]
Settings | vapor or sublimation pressure
279.5 K, Crystal | 0.00537 kPa
283.3 K, Crystal | 0.008 kPa
286.3 K, Crystal | 0.01101 kPa
289.4 K, Crystal | 0.01456 kPa
293.2 K, Crystal | 0.0205 kPa and 0.02183 kPa
298.1 K, Crystal | 0.0335 kPa
303 K, Crystal | 0.0526 kPa
308 K, Liquid | 0.08115 kPa
311 K, Liquid | 0.09922 kPa
315 K, Liquid | 0.1261 kPa
319.1 K, Liquid | 0.1599 kPa
323.2 K, Liquid | 0.2025 kPa
328.1 K, Liquid | 0.2776 kPa
332.9 K, Liquid | 0.3665 kPa

Settings | Normal melting temperature [°C]
[1], Crystal | 34.4

Brc1ccccc1 [bromobenzene]
[1], Liquid
Settings | vapor or sublimation pressure [kPa]
276.4 K | 0.1345
278.3 K | 0.1534
282.2 K | 0.1957
283.1 K | 0.2092
285.4 K | 0.2487
286.2 K | 0.2532
288.3 K | 0.2954
289.3 K | 0.3211
291.4 K | 0.3549
292.4 K | 0.3794
293.2 K | 0.4046
294.4 K | 0.4413
295.5 K | 0.4596
297.4 K | 0.5225
300.4 K | 0.6407
303.4 K | 0.7604

Ic1ccccc1 [iodobenzene]
[1], Liquid
Settings | vapor or sublimation pressure [kPa]
283.8 K | 0.05269
286.8 K | 0.06386
289.9 K | 0.08034
293 K | 0.09644
294 K | 0.1029
296.8 K | 0.1261
299.6 K | 0.1487
302.6 K | 0.1853
305.7 K | 0.2226
308.7 K | 0.2722
311.8 K | 0.3239
314.6 K | 0.3944
